Reference: article PMC8811960, “A Novel 2-Carbon-Linked Dimeric Artemisinin With Potent Antileukemic Activity and Favorable Pharmacology” (Frontiers in Oncology, 2022)
Counter-ions that a name gives are not always drawn.

Experiments:
[1] = tested on: MOLM14, MV4;11, and HL60 human AML cells; assay: Annexin V/7-AAD cell viability and apoptosis; type: cell-based; conditions: 30-45 min pre-incubation with 10 nM QVD
Method: (§1) Cytotoxicity was assessed using alamarBlue assays (Life Technologies, Grand Island, NY) following manufacturer’s guidelines. Cell death was verified by Annexin V/7-aminoactinomycin D (7AAD) staining (BioLegend, San Diego, CA) per manufacturer’s guidelines.
MOLM14, MV4;11, and HL60 human AML cells were assessed for cell viability and caspase-dependent apoptosis following treatment with ART631 (200 nM), VEN (50 nM), SOR (5 µM), and combinations thereof.
Figure 3 ART631-based combination treatments reduced cell viability in AML cell lines. MOLM14, MV4;11, and HL60 AML cells were each treated for 18h with vehicle (DMSO) control, ART631 alone (200 nM), VEN alone (50 nM), SOR alone (5 uM), and 2- and 3-drug combinations, all with and without a 30-45 min pre-incubation with 10 nM pan-caspase inhibitor QVD-OPh (QVD). Treated cells were stained with 2.5 ug/mL 7-aminoactinomycin D (7-AAD) and 0.5 ug/mL allophycocyanin (APC)-conjugated Annexin V in Annexin V binding buffer and analyzed by flow cytometry. Graphs indicate % cell viability based on Annexin V/7-AAD dual staining. For MOLM14 and MV4;11, means and SDs shown are based on 3 independent experiments. HL60 cell data is from one experiment done in triplicate.

DDIT3 = assay: qRT-PCR for DDIT3 mRNA; type: cell-based, human; conditions: MOLM14, 18h, ART631 200 nM, ART838 200 nM, AS 10 uM, similar results in MV4;11 and ML2
Method: Cells were pre-treated with […] ROS detection reagent 5-(and 6-)-chloromethyl-2’,7’-dichlorodihydrofluorescein diacetate (CM-H2DCFDA, Life Technologies) for 30 min, followed by the iron chelator deferoxamine mesylate (DFO; 11 mM) for 60 min. Cells were then treated with ART631 (200 nM) or DMSO control for 18h, with subsequent analysis by flow cytometry. Western blotting and quantitative reverse transcription PCR (qRT-PCR) to assess for molecular markers of ROS-mediated apoptosis were performed as previously described ([20]).
(§2) Figure 4 ART631 elevated ROS and CHOP levels and reduced MCL1 expression in MOLM14 AML cells. (A) MOLM14 AML cells were pre-treated with ROS detection reagent CM-H2DCFDA (5 mM) for 30 min, pre-treated with deferoxamine mesylate (DFO; 11 mM) for 60 min, and then treated with ART631 (200 nM) or DMSO control for 18h. They were then analyzed by flow cytometry. Graph represents %CM-H2DCFDA fluorescence compared to vehicle (DMSO) control treated cells. Error bars represent SD from 3 independent experiments. (B) MOLM14 AML cells were treated for 18h with vehicle, AS (10 uM), ART838 (200 nM), ART631 (200 nM), cytarabine (AraC; 150 nM), or SOR (5 uM). Protein was isolated and western blotted for MCL1, BCL2, CHOP, and β-actin. (C) MOLM14 cells were treated as in (B) for 18h, total RNA isolated, cDNA synthesized, and SYBR Green qRT-PCR performed in triplicates. Ct values were normalized to housekeeping gene GAPDH and fold change shown relative to vehicle (DMSO) control. Error bars represent SD from 3 independent experiments done in triplicate.

MV4;11 = assay: alamarBlue growth inhibition, MV4;11; type: cell-based; conditions: Homo sapiens, MV4;11, 48h, mean of 2 independent assays ± SD
Method: as §1

MOLM14 = assay: alamarBlue growth inhibition, MOLM14; type: cell-based; conditions: Homo sapiens, MOLM-14; MOLM14, 48h, alamarBlue, mean of 2 independent assays ± SD; read-out: IC50
Method: as §1
In this experiment, provided to show the entire concentration:response range, MOLM14 AML cells were cultured with a range of concentrations of artesunate (AS), ART838, ART631, and ART576 for 48h. Graph indicates growth inhibition relative to vehicle (DMSO)-treated controls by alamarBlue absorbance assays. Data points and error bars represent mean and SD of 3 independent experiments done in triplicate.

HL60 = assay: alamarBlue growth inhibition, HL60; type: cell-based; conditions: Homo sapiens, HL-60, HL60, 48h, mean of 2 independent assays ± SD
Method: as §1

HEL = assay: alamarBlue growth inhibition, HEL; type: cell-based; conditions: Homo sapiens, 48h, mean of 2 independent assays ± SD
Method: as §1

KG1a = assay: alamarBlue growth inhibition, KG1a; type: cell-based; conditions: Homo sapiens, KG-1a, 48h, mean of 2 independent assays ± SD
Method: as §1

U937 = assay: alamarBlue growth inhibition, U937; type: cell-based; conditions: Homo sapiens, U-937, U937, 48h, mean of 2 independent assays ± SD
Method: as §1

ML2 = assay: alamarBlue growth inhibition, ML2; type: cell-based; conditions: Homo sapiens, ML-2, ML2, 48h, mean of 2 independent assays ± SD
Method: as §1

THP1 = assay: alamarBlue growth inhibition, THP1; type: cell-based; conditions: Homo sapiens, THP-1, THP1, 48h, mean of 2 independent assays ± SD
Method: as §1

TF1 = assay: alamarBlue growth inhibition, TF1; type: cell-based; conditions: Homo sapiens, TF-1, TF1, 48h, mean of 2 independent assays ± SD
Method: as §1

K562 = assay: alamarBlue growth inhibition, K562; type: cell-based; conditions: Homo sapiens, K562, 48h, mean of 2 independent assays ± SD
Method: as §1

MOLM14 cells = assay: Total cellular ROS (CM-H2DCFDA flow cytometry); type: cell-based, human; conditions: MOLM14, DFO 11 uM, 60 min pre-treatment
Method: […] Cells were then treated with ART631 (200 nM) or DMSO control for 18h, with subsequent analysis by flow cytometry. Western blotting and quantitative reverse transcription PCR (qRT-PCR) to assess for molecular markers of ROS-mediated apoptosis were performed as previously described ([20]).
as §2, with “(A) MOLM14 AML cells were pre-treated with ROS detection reagent CM-H2DCFDA (5 mM) for 30 min, pre-treated with deferoxamine mesylate (DFO; 11 mM) for 60 min, and then treated with ART631 (200 nM) or DMSO control for 18h.” left out

[2] = Phase I microsomal stability, mouse liver microsomes; type: in vitro ADME
Method: (§3) The metabolic stability of ART631 was assessed in human and mouse plasma and liver microsomes (LM). For phase I microsomal stability assays, analogs (10 µM in <1% acetonitrile) were incubated in PBS containing liver microsomes, with or without cofactors ([22]). Microsomal controls (without cofactors) were used to determine non-enzymatic degradation. All experiments were incubated at 37°C for 1h and performed in duplicate. Reactions were stopped with acetonitrile and analyzed as described below.
(§4) ART631 was extracted from 25 µL plasma or microsomal solutions with 100 µL acetonitrile containing artemisinin (i.e. the natural product) as internal standard. […] Mobile phase A was ammonium acetate (2mM) containing 0.1% formic acid, and mobile phase B was acetonitrile containing 0.1% formic acid. The gradient started with mobile phase B and was held at 40% for 0.5 minutes with a flow rate of 0.4 mL/min, then increased to 100% over 1.5 minutes and held for 2.0 minutes, and finally returned back to 40% mobile phase B and allowed to equilibrate for 2.0 minutes. An AB Sciex 5500 triple quadrupole mass spectrometer operated in positive electrospray ionization mode was used for the detection of ART631. For stability studies, the ratio of ART631 to the internal standard, artemisinin, was assessed. Calibration curves for ART631 were computed using the ratio of the peak area to that of the internal standard by using a quadratic equation with a 1/x^2 weighting function over the range of 8-1585 nM with dilutions of up to 1:10 (v/v).

10 human AML cell lines = assay: alamarBlue growth inhibition, panel of 10 human AML cell lines; type: cell-based
Method: as §1
Cell lines with adverse risk cytogenetic and molecular features, e.g. MLL rearrangements (ML2, MOLM14, MV4;11, THP1), FLT3-ITD (MOLM14, MV4;11), TP53 mutations (KG1a, ML2, THP1, U937), and NRAS/KRAS mutations (ML2, THP1), were among those exquisitely sensitive to ART631, with IC50s < 50 nM. The K562 cell line was the only exception, as it was resistant to all 3 of these ARTs. Based on this in vitro activity data combined with the drug stability data described below, ART631 was prioritized over ART576 for further in vitro and in vivo antileukemic efficacy experiments here ( Table 2 ).

Stability in plasma = type: in vitro ADME, human and mouse; conditions: species not given
Method: as §3
We compared the in vitro stability of ART576 and ART631 ( Table 3 ). ART576 was stable in plasma (<10% degradation), but unstable with degradation of >70% in human liver microsomes with co-factors and >90% in mouse liver microsomes with co-factors ( Table 3 ).

[3] = Stability in human plasma (EDTA); type: in vitro ADME; conditions: 10 µM, 37°C, 1h
Method: as §3
as §4, with “Calibration curves for ART631 were computed using the ratio of the peak area to that of the internal standard by using a quadratic equation with a 1/x^2 weighting function over the range of 8-1585 nM with dilutions of up to 1:10 (v/v).” left out

[4] = Stability in mouse plasma (EDTA); type: in vitro ADME; conditions: 10 µM, 37°C, 1h
Method: as §3
as §4, with “Calibration curves for ART631 were computed using the ratio of the peak area to that of the internal standard by using a quadratic equation with a 1/x^2 weighting function over the range of 8-1585 nM with dilutions of up to 1:10 (v/v).” left out

[5] = Phase I microsomal stability, human liver microsomes; type: in vitro ADME
Method: as §3, §4

[6] = tested on: MOLM14, MV4;11, and HL60 human AML cells; set-up: method as in PMID 33560385; conditions: ART631 200 nM, VEN 50 nM, SOR 5 µM; MOLM14, MV4;11, HL60; cited from earlier work
[7] = 10 µM, 37°C, 1h, with cofactors
[8] = 10 µM, 37°C, 1h, without cofactors
[9] = NADPH-dependent phase I metabolism

CC(C)[C@H](NC(=O)c1ccc2ccccc2n1)C(=O)N[C@@H](CC(=O)O)C(=O)COc1c(F)cccc1F [QVD-OPh]
effect of pre-treatment on apoptosis and cell death for all drugs and combinations [1]: almost fully inhibited

C[C@H]1[C@H](OC(=O)CCC(=O)O)O[C@@H]2O[C@@]3(C)CC[C@H]4[C@H](C)CC[C@@H]1[C@@]24OO3 [AS, artesunate, reference compound]
DDIT3 mRNA (DDIT3): increased
IC50 (MV4;11): 610 ± 30 nM
IC50 (MOLM14): 890 ± 99 nM
IC50 (HL60): 1060 ± 83 nM
IC50 (HEL): 1110 ± 93 nM
IC50 (KG1a): 2600 ± 458 nM
IC50 (U937): 521 ± 96 nM
IC50 (ML2): 1580 ± 94 nM
IC50 (THP1): > 10 µM
IC50 (TF1): 1720 ± 302 nM
IC50 (K562): > 10 µM

CC(=O)N(O)CCCCCNC(=O)CCC(=O)N(O)CCCCCNC(=O)CCC(=O)N(O)CCCCCN [deferoxamine mesylate, reference compound]
effect of pre-treatment on ROS generation by ART631 (MOLM14 cells): diminished

C[C@@H]1CCC2[C@@H](C)[C@@H](C(=O)C[C@H]3O[C@@H]4O[C@@]5(C)CCC6[C@H](C)CCC([C@H]3C)[C@]64OO5)O[C@@H]3O[C@@]4(C)CCC1[C@@]23OO4 (stereo partly drawn) [ART576]
percentage remaining, Phase I Metabolism MLM NADPH(+) [2, 7]: 7%
percentage remaining, Phase I Metabolism MLM NADPH(-) [2, 8]: 96%
degradation in mouse liver microsomes with co-factors [2, 9]: > 90%
IC50 (MV4;11): 38 ± 10 nM
IC50 (MOLM14): 43 ± 7 nM
IC50 (HL60): 72 ± 18 nM
number of human AML cell lines whose growth was inhibited (10 human AML cell lines; of 10 human AML cell lines tested): 8
IC50 (10 human AML cell lines; range over the inhibited cell lines of 10 human AML cell lines, read-out: IC50 range): 23 to 105 nM
degradation in plasma (Stability in plasma): < 10%
IC50 (HEL): 80 ± 19 nM
IC50 (KG1a): 64 ± 4 nM
IC50 (U937): 23 ± 1 nM
percentage remaining, Plasma (EDTA) Human [3]: 91%
IC50 (ML2): 105 ± 12 nM
IC50 (THP1): > 1 µM
percentage remaining, Plasma (EDTA) Mouse [4]: 101%
IC50 (TF1): 49 ± 12 nM
percentage remaining, Phase I Metabolism HLM NADPH(+) [5, 7]: 26%
percentage remaining, Phase I Metabolism HLM NADPH(-) [5, 8]: 89%
degradation in human liver microsomes with co-factors [5, 9]: > 70%
IC50 (K562): > 1 µM

CC1(C)CCC(CN2CCN(c3ccc(C(=O)NS(=O)(=O)c4ccc(NCC5CCOCC5)c([N+](=O)[O-])c4)c(Oc4cnc5[nH]ccc5c4)c3)CC2)=C(c2ccc(Cl)cc2)C1 [VEN, venetoclax]
cell death as single agents [6]: less than 15%

CNC(=O)c1cc(Oc2ccc(NC(=O)Nc3ccc(Cl)c(C(F)(F)F)c3)cc2)ccn1 [SOR, sorafenib]
cell death as single agents [6]: less than 15%
